According to patent US8613914B2, “Peptidomimetic sulfamide compounds and antiviral uses thereof” (Novartis AG, priority 2009, dated 2013):

molecular target: HCV NS3-4A serine protease (full-length NS3-4A protein) (Hepatitis C virus genotype 1a (isolate 1) (HCV), UniProt P26664); test: HCV NS3-4A protease assay; format: biochemical, HCV genotype 1a; conditions: strain HCV-1, fluorogenic peptide substrate, read-out: Protease assay Ex. 12 IC50
Procedure: The inhibitory activity of certain compounds of Table A against HCV NS3-4A serine protease is determined in a homogenous assay using the full-length NS3-4A protein (genotype 1a, strain HCV-1) and a commercially available internally-quenched fluorogenic peptide substrate as described by Taliani, M., et al. 1996 Anal. Biochem. 240:60-67, which is incorporated by reference in its entirety.

HCV NS3-4A serine protease (full-length NS3-4A protein), sequence (P26664 1027-1657): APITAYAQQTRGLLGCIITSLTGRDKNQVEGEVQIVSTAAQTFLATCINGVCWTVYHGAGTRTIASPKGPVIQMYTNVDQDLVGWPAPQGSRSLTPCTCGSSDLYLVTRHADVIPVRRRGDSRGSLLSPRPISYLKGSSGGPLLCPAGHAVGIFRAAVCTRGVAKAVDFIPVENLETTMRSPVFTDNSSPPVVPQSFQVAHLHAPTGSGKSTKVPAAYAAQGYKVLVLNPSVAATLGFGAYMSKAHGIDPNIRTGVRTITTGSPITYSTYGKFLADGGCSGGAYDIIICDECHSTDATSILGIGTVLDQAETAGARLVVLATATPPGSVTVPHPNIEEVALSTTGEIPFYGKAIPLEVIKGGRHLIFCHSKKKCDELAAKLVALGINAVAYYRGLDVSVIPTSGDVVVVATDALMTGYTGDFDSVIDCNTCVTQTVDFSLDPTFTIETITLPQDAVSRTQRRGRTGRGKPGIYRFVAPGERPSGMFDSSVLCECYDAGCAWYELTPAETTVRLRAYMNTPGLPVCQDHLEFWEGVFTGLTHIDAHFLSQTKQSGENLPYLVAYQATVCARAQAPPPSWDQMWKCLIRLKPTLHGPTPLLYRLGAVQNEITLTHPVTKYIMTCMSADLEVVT
HCV NS3-4A serine protease (full-length NS3-4A protein), sequence (P26664 1658-1711 partner): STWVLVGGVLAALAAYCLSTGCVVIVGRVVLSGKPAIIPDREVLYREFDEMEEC

Compound | IC50 [nM]
C=C[C@@H]1C[C@]1(NC(=O)[C@@H]1C[C@@]2(CN1C(=O)[C@@H](NC(=O)[C@@H](NC(=O)[C@@H]1CCCCN1CCOC)C1CCCCC1)C(C)(C)C)C(C)(C)C21CCC1)C(=O)NS(=O)(=O)N1CCCC1 [Compound 33, (5R,8S)-7-[(2S)-2-{[(2S)-2-cyclohexyl-2-({[(2S)-1-(2-methoxyethyl)piperidin-2-yl]carbonyl}amino)acetyl]amino}-3,3-dimethylbutanoyl]-10,10-dimethyl-N-{(1R,2S)-1-[(pyrrolidin-1-ylsulfonyl)carbamoyl]-2-vinylcyclopropyl}-7-azadispiro[3.0.4.1]decane-8-carboxamide] | 3.5
C=C[C@@H]1C[C@]1(NC(=O)[C@@H]1C[C@@]2(CN1C(=O)[C@@H](NC(=O)[C@@H](NC(=O)[C@@H]1CCCCN1C(C)C)C1CCCCC1)C1CCCCC1)C(C)(C)C21CCC1)C(=O)NS(=O)(=O)N1CCCC1 [Compound 35, (5R,8S)-7-[(2S)-2-cyclohexyl-2-{[(2S)-2-cyclohexyl-2-({[(2S)-1-isopropylpiperidin-2-yl]carbonyl}amino)acetyl]amino}acetyl]-10,10-dimethyl-N-{(1R,2S)-1-[(pyrrolidin-1-ylsulfonyl)carbamoyl]-2-vinylcyclopropyl}-7-azadispiro[3.0.4.1]decane-8-carboxamide] | 3
C=C[C@@H]1C[C@]1(NC(=O)[C@@H]1C[C@@]2(CN1C(=O)[C@@H](NC(=O)[C@@H](NC(=O)[C@H]1CCCCN1CC)C1CCCCC1)C(C)(C)C)C(C)(C)C21CCC1)C(=O)NS(=O)(=O)N1CCCC1 [Compound 36, (5R,8S)-7-[(2S)-2-{[(2S)-2-cyclohexyl-2-({[(2R)-1-ethylpiperidin-2-yl]carbonyl}amino)acetyl]amino}-3,3-dimethylbutanoyl]-10,10-dimethyl-N-{(1R,2S)-1-[(pyrrolidin-1-ylsulfonyl)carbamoyl]-2-vinylcyclopropyl}-7-azadispiro[3.0.4.1]decane-8-carboxamide] | 3.5
C=C[C@@H]1C[C@]1(NC(=O)[C@@H]1C[C@@]2(CN1C(=O)[C@@H](NC(=O)[C@@H](NC(=O)[C@@H]1CCCCN1CC)C1CCCCC1)C(C)(C)C)C(C)(C)C21CCC1)C(=O)NS(=O)(=O)N1CCCC1 [Compound 37, (5R,8S)-7-[(2S)-2-{[(2S)-2-cyclohexyl-2-({[(2S)-1-ethylpiperidin-2-yl]carbonyl}amino)acetyl]amino}-3,3-dimethylbutanoyl]-10,10-dimethyl-N-{(1R,2S)-1-[(pyrrolidin-1-ylsulfonyl)carbamoyl]-2-vinylcyclopropyl}-7-azadispiro[3.0.4.1]decane-8-carboxamide] | 3.3
C=C[C@@H]1C[C@]1(NC(=O)[C@@H]1C[C@@]2(CN1C(=O)[C@@H](NC(=O)[C@@H](NC(=O)[C@H]1CCCN1CC)C1CCCCC1)C(C)(C)C)C(C)(C)C21CCC1)C(=O)NS(=O)(=O)N1CCCC1 [Compound 38, (5R,8S)-7-[(2S)-2-{[(2S)-2-cyclohexyl-2-({[(2R)-1-ethylpyrrolidin-2-yl]carbonyl}amino)acetyl]amino}-3,3-dimethylbutanoyl]-10,10-dimethyl-N-{(1R,2S)-1-[(pyrrolidin-1-ylsulfonyl)carbamoyl]-2-vinylcyclopropyl}-7-azadispiro[3.0.4.1]decane-8-carboxamide] | 3.5
C=C[C@@H]1C[C@]1(NC(=O)[C@@H]1C[C@@]2(CN1C(=O)[C@@H](NC(=O)[C@@H](NC(=O)[C@@H]1CCCN1CC)C1CCCCC1)C(C)(C)C)C(C)(C)C21CCC1)C(=O)NS(=O)(=O)N1CCCC1 [Compound 39, (5R,8S)-7-[(2S)-2-{[(2S)-2-cyclohexyl-2-({[(2S)-1-ethylpyrrolidin-2-yl]carbonyl}amino)acetyl]amino}-3,3-dimethylbutanoyl]-10,10-dimethyl-N-{(1R,2S)-1-[(pyrrolidin-1-ylsulfonyl)carbamoyl]-2-vinylcyclopropyl}-7-azadispiro[3.0.4.1]decane-8-carboxamide] | 2.5
C=C[C@@H]1C[C@]1(NC(=O)[C@@H]1C[C@@]2(CN1C(=O)[C@@H](NC(=O)[C@@H](NC(=O)C1CCN1C(C)(C)C)C1CCCCC1)C(C)(C)C)C(C)(C)C21CCC1)C(=O)NS(=O)(=O)N1CCCC1 (stereo partly drawn) [Compound 40, (5R,8S)-7-[(2S)-2-{[(2S)-2-{[(1-tert-butylazetidin-2-yl)carbonyl]amino}-2-cyclohexylacetyl]amino}-3,3-dimethylbutanoyl]-10,10-dimethyl-N-{(1R,2S)-1-[(pyrrolidin-1-ylsulfonyl)carbamoyl]-2-vinylcyclopropyl}-7-azadispiro[3.0.4.1]decane-8-carboxamide] | 6
C=C[C@@H]1C[C@]1(NC(=O)[C@@H]1C[C@@]2(CN1C(=O)[C@@H](NC(=O)[C@@H](NC(=O)[C@@H]1CCCCN1C(C)C)C1CCCCC1)C1CCOCC1)C(C)(C)C21CCC1)C(=O)NS(=O)(=O)N1CCCC1 [Compound 41, (5R,8S)-7-[(2S)-2-{[(2S)-2-cyclohexyl-2-({[(2S)-1-isopropylpiperidin-2-yl]carbonyl}amino)acetyl]amino}-2-(tetrahydro-2H-pyran-4-yl)acetyl]-10,10-dimethyl-N-{(1R,2S)-1-[(pyrrolidin-1-ylsulfonyl)carbamoyl]-2-vinylcyclopropyl}-7-azadispiro[3.0.4.1]decane-8-carboxamide] | 0.9
C=C[C@@H]1C[C@]1(NC(=O)[C@@H]1C[C@@]2(CN1C(=O)[C@@H](NC(=O)[C@@H](NC(=O)c1cnccn1)C1CCCCC1)C1CCOCC1)C(C)(C)C21CCC1)C(=O)NS(=O)(=O)N1CCCC1 [Compound 42, (5R,8S)-7-[(2S)-2-({(2S)-2-cyclohexyl-2-[(pyrazin-2-ylcarbonyl)amino]acetyl}amino)-2-(tetrahydro-2H-pyran-4-yl)acetyl]-10,10-dimethyl-N-{(1R,2S)-1-[(pyrrolidin-1-ylsulfonyl)carbamoyl]-2-vinylcyclopropyl}-7-azadispiro[3.0.4.1]decane-8-carboxamide] | 40
C=C[C@@H]1C[C@]1(NC(=O)[C@@H]1C[C@@]2(CN1C(=O)[C@@H](NC(=O)[C@@H](NC(=O)c1cnccn1)C1CCOCC1)C(C)(C)C)C(C)(C)C21CCC1)C(=O)NS(=O)(=O)N1CCCC1 [Compound 43, (5R,8S)-7-[(2S)-3,3-dimethyl-2-{[(2S)-2-[(pyrazin-2-ylcarbonyl)amino]-2-(tetrahydro-2H-pyran-4-yl)acetyl]amino}butanoyl]-10,10-dimethyl-N-{(1R,2S)-1-[(pyrrolidin-1-ylsulfonyl)carbamoyl]-2-vinylcyclopropyl}-7-azadispiro[3.0.4.1]decane-8-carboxamide] | 60
C=C[C@@H]1C[C@]1(NC(=O)[C@@H]1C[C@@]2(CN1C(=O)[C@@H](NC(=O)[C@@H](NC(=O)[C@@H]1CCCCN1C(C)C)C1CCOCC1)C(C)(C)C)C(C)(C)C21CCC1)C(=O)NS(=O)(=O)N1CCCC1 [Compound 44, (5R,8S)-7-[(2S)-2-{[(2S)-2-({[(2S)-1-isopropylpiperidin-2-yl]carbonyl}amino)-2-(tetrahydro-2H-pyran-4-yl)acetyl]amino}-3,3-dimethylbutanoyl]-10,10-dimethyl-N-{(1R,2S)-1-[(pyrrolidin-1-ylsulfonyl)carbamoyl]-2-vinylcyclopropyl}-7-azadispiro[3.0.4.1]decane-8-carboxamide] | 15
C=C[C@@H]1C[C@]1(NC(=O)[C@@H]1C[C@@]2(CN1C(=O)[C@@H](NC(=O)[C@@H](NC(=O)[C@@H]1CCCCN1C(C)C)C1CCCCC1)C(C)(C)C)C(C)(C)C21CCC1)C(=O)NS(=O)(=O)N1CC[C@@H](F)C1 [Compound 45, (5R,8S)-7-[(2S)-2-{[(2S)-2-cyclohexyl-2-({[(2S)-1-isopropylpiperidin-2-yl]carbonyl}amino)acetyl]amino}-3,3-dimethylbutanoyl]-N-[(1R,2S)-1-({[(3R)-3-fluoropyrrolidin-1-yl]sulfonyl}carbamoyl)-2-vinylcyclopropyl]-10,10-dimethyl-7-azadispiro[3.0.4.1]decane-8-carboxamide] | 1
C=C[C@@H]1C[C@]1(NC(=O)[C@@H]1C[C@@]2(CN1C(=O)[C@@H](NC(=O)[C@@H](NC(=O)[C@@H]1CCCCN1C(C)C)C1CCCCC1)C(C)(C)C)C(C)(C)C21CCC1)C(=O)NS(=O)(=O)N1CC[C@H](F)C1 [Compound 46, (5R,8S)-7-[(2S)-2-{[(2S)-2-cyclohexyl-2-({[(2S)-1-isopropylpiperidin-2-yl]carbonyl}amino)acetyl]amino}-3,3-dimethylbutanoyl]-N-[(1R,2S)-1-({[(3S)-3-fluoropyrrolidin-1-yl]sulfonyl}carbamoyl)-2-vinylcyclopropyl]-10,10-dimethyl-7-azadispiro[3.0.4.1]decane-8-carboxamide] | 2
C=C[C@@H]1C[C@]1(NC(=O)[C@@H]1C[C@@]2(CN1C(=O)[C@@H](NC(=O)[C@@H](NC(=O)[C@H]1CCCCN1C(C)C)C1CCCCC1)C(C)(C)C)C(C)(C)C21CCC1)C(=O)NS(=O)(=O)N1CCCC1 [Compound 47, (5R,8S)-7-[(2S)-2-{[(2S)-2-cyclohexyl-2-({[(2R)-1-isopropylpiperidin-2-yl]carbonyl}amino)acetyl]amino}-3,3-dimethylbutanoyl]-10,10-dimethyl-N-{(1R,2S)-1-[(pyrrolidin-1-ylsulfonyl)carbamoyl]-2-vinylcyclopropyl}-7-azadispiro[3.0.4.1]decane-8-carboxamide] | 4.8
C=C[C@@H]1C[C@]1(NC(=O)[C@@H]1C[C@@]2(CN1C(=O)[C@@H](NC(=O)[C@@H](NC(=O)[C@H]1CCCCN1C)C1CCCCC1)C(C)(C)C)C(C)(C)C21CCC1)C(=O)NS(=O)(=O)N1CCCC1 [Compound 48, (5R,8S)-7-[(2S)-2-{[(2S)-2-cyclohexyl-2-({[(2R)-1-methylpiperidin-2-yl]carbonyl}amino)acetyl]amino}-3,3-dimethylbutanoyl]-10,10-dimethyl-N-{(1R,2S)-1-[(pyrrolidin-1-ylsulfonyl)carbamoyl]-2-vinylcyclopropyl}-7-azadispiro[3.0.4.1]decane-8-carboxamide] | 0.9
